Laboratory results published in US20100184946A1, “Preparation of Fine Particles” (priority 2007, published 2010).

Assay: Particle form by X-ray powder diffraction (XRPD)
Format: physicochemical
Conditions: starting material before the process; product after freeze drying
Method: The physical form of the paclitaxel particles was measured using X-ray powder diffraction method (“XRPD”) before the process (i.e. the starting material) and again after the product of the process had been freeze dried.

CC(=O)O[C@H]1C(=O)[C@@]2(C)[C@H]([C@H](OC(=O)c3ccccc3)[C@]3(O)C[C@H](OC(=O)[C@H](O)[C@@H](NC(=O)c4ccccc4)c4ccccc4)C(C)=C1C3(C)C)[C@]1(OC(C)=O)CO[C@@H]1C[C@@H]2O [paclitaxel]
physical form (XRPD): crystal structure ordering
